Data as given in patent US20240368104A1, “Novel Dialkoxynaphtho[2,3-C]Furan-1(3H)-One Derivatives and Pharmaceutical Composition For Preventing or Treating Respiratory Disease or SARS-COV-2 Infection Disease, Comprising Same” (priority 2021, published 2024).
Where two headings read alike, the source gives them in different places.

Key:
[1] = tested on: SFTS virus (KADGH; NCCP43261); assay: microbe, parasite or virus in culture; format: cell-based, severe fever with thrombocytopenia syndrome virus; design: SI (Selectivity Index, CC50/IC50): unit not given here; settings: for IC50: Severe fever with thrombocytopenia syndrome virus, Vero, 24 h, read-out: SFTSV inhibition (IC50, μM); for SI (Selectivity Index, CC50/IC50): SFTS virus
[2] = in vitro; settings: African green monkey
[3] = tested on: SARS-COV-2; assay: microbe, parasite or virus in culture; format: cell-based; design: SI (Selectivity Index, CC50/IC50): unit not given here; settings: for SI (Selectivity Index, CC50/IC50): SARS-COV-2, values >50 assumed to be 50; for IC50: read-out: SARS-COV-2 inhibition (IC50)
[4] = tested on: IL-4 secretion in RBL-2H3 cells; assay: Inhibition of IL-4 secretion in RBL-2H3 cell line (A23187 induced, ELISA); format: cell-based; settings: Rattus norvegicus
Procedure: The RBL-2H3 cell line was purchased from the American Type Culture Collection (ATCC #CRL-2256). The cells were diluted at a concentration of 1×10^6 cells/ml in RPMI medium containing 15% fetal bovine serum (FBS) and antibiotics (penicillin at 100 U/mL, streptomycin at 100 μg/mL), distributed at 200 μl/well in a 48 well plate, and cultured in a 37° C., 5% CO2 incubator for 24 hours. In 24 hours later, the cells were pre-treated one hour before with a test drug and AS1517499 (STAT6 inhibitor) as a control drug, and treated with 1 uM of A23187 for six hours to induce an immune response, after which a group not containing the drug was used as a control. In order to measure a secretion level of cytokine IL-4, the medium was collected from the well plate and centrifuged at 125×g for five minutes to remove a residue, and 100 μl of the medium was used to measure an amount of IL-4 secreted from the cells by using IL-4 enzyme-linked immunosorbent assay (ELISA, Komabiotech). A degree of inhibition of cell secretion by the drug was calculated using [Equation 1] below.
First of all, 288 kinds of materials were treated at a single concentration of 10 uM so as to select 60 kinds of materials which inhibit secretion of IL-4 by 75% or more (FIG. 19).
After that, a repeated experiment and a two-concentration (10, 3 uM) test were performed using the selected 60 kinds of materials so as to select the final eight kinds, and the IC50 value was calculated and shown in Table 3.

[5] = tested on: IL-4 secretion in mouse splenocytes; assay: Inhibition of IL-4 secretion in mouse splenocytes (Concanavalin A, ELISA); format: cell-based, Balb/c mice; settings: for inhibition at 1 µM: Splenocyte, read-out: IL-4 Secretion inhibitory ability (%); for IL-4 pg/ml: Concanavalin A 5 μg/mL, 48 hours
Procedure: (§1) The isolated splenocytes were diluted at a concentration of 5×10^6 cells/mL in RPMI medium containing 10% fetal bovine serum (FBS) and antibiotics (penicillin at 100 U/mL, streptomycin at 100 μg/mL), distributed at 500 μl/well in a 24 well plate, and cultured in a 37° C., 5% CO2 incubator for 48 hours. When splenocytes were distributed, an immune reaction was induced by treating with 5 μg/mL of Concanavalin A, and at this time, the splenocytes were treated with the materials selected in Experimental Example 3 at a concentration of 1 uM. First, in order to measure Th2 cytokines, the medium was collected from the 24-well plate, and only the supernatant was separated through centrifugation at 800×g for five minutes, after which 100 μl of the supernatant per well was used in an enzyme-linked immunosorbent assay (ELISA, Komabiotech) experiment so as to measure a degree of secretion of Th2 cytokines IL-4 and IL-5. A degree of inhibition against secretion of cytokines by the test material was calculated using [Equation 2] below, and the measurement results are shown in Table 7.

[6] = tested on: IL-5 secretion in mouse splenocytes; assay: Inhibition of IL-5 secretion in mouse splenocytes (Concanavalin A, ELISA); format: cell-based, Balb/c mice; settings: for inhibition at 1 µM: Splenocyte, read-out: IL-5 Secretion inhibitory ability (%); for IL-5 pg/ml: Concanavalin A 5 μg/mL, 48 hours
Procedure: as §1

[7] = in vitro; settings: African green monkey; remark: listed apart in the source
[8] = tested on: Balb/c mouse asthma model; assay: Balb/c mouse asthma model (ovalbumin), BALF IgE, IL-4, IL-5 and inflammatory cells; format: in vivo, Balb/c mice
Procedure: In detail, five-week-old Balb/c mice were purchased and acclimated for one week, after which the mice were sensitized systemically by intraperitoneal injection with 0.1% ovalbumin (OVA 1 mg/mL, Al(OH)3 20 mg/mL) at 100 μl/mouse on days 0 and 14 from a week after the acclimation. From a week (day 21) after a final systemic sensitization, the compound of Example 73 was orally administered everyday at 10 mg/kg to mice for ten days, and dexamethasone was intraperitoneally administered at 1 mg/kg as a positive control group. In one hour later, 0.2% ovalbumin solution was sprayed with a nebulizer (PARIBoy SX, GmbH, Germany) so as to be inhaled for one hour. In five hours after the final sensitization (day 30), an autopsy was performed, and 1 mL of phosphate buffer solution was flowed through a tracheotomy to collect a bronchoalveolar lavage fluid (BALF). The collected BALF was centrifuged at 3000 rpm for ten minutes, and the supernatant was used to measure bioactive materials (IL-4, IL-5), and pellets were used to measure the number of inflammatory cells. In addition, an IgE concentration in the isolated BALF was measured using IgE enzyme-linked immunosorbent assay (ELISA, Komabiotech), and IL-4 and IL-5 were measured using their respective enzyme-linked immunosorbent assay (ELISA, IL-4: Enzo #ADI-900-043, IL-5: R&D system #M5000).
The results are shown in Table 8 and FIG. 22, and each secretion inhibitory activity was calculated in the same manner as in [Equation 2] of Experimental Example 4.
In addition, the BALF pellets were re-dissolved by adding 0.5 mL of phosphate buffer solution, and then 0.1 mL for each thereof was added to a 96-well plate and centrifuged at 800 rpm for five minutes to attach cells to the bottom (three wells per sample). Then, the cells were stained with Diff Quik staining solution (Sysmex) and the number of cells was measured with […].
The results were shown in FIG. 21, the SPSS program was used for statistical processing, the Levene test was performed for equal-variance test, and the significance test was performed through one-way ANOVA.

[9] = tested on: dengue virus; assay: Inhibitory effect against dengue virus in Vero E6 cells; format: cell-based
Procedure: On the next day, a compound having a concentration of 0.0625 micro M was prepared from a compound having a concentration of 3 micro M and treated to Vero E6 cells, and then the cells treated with the compound were immediately infected with dengue virus (0.01 MOI) and cultured at 37° C. for five days.

[10] = tested on: Zika virus; assay: Inhibitory effect against Zika virus in Vero cells; format: cell-based
[11] = Severe acute respiratory syndrome coronavirus 2, Vero, 24 h
[12] = RBL-2H3, read-out: IL-4 secretion inhibition IC50 (μM)
[13] = mouse splenocytes, compound 1 μM
[14] = Severe acute respiratory syndrome coronavirus 2, Vero cells, 24 hours infection
[15] = RBL-2H3 cells, 1 uM A23187, read-out: IL-4 secretion inhibition IC50
[16] = Example 73 10 mg/kg oral, dexamethasone 1 mg/kg intraperitoneal
[17] = Mean ± S.D., n = 5, Example 73 10 mg/kg oral, dexamethasone 1 mg/kg intraperitoneal, ten days

Structure (SMILES): CCN(CC)CCCC(C)Nc1ccnc2cc(Cl)ccc12 (centres unmarked) [Chloroquine]
- IC50 [1]: 21.8 µM
- CC50 [2]: 104 µM

Structure (SMILES): COc1cc2cc3c(c(-c4cnc(N(CC(C)C)CC(C)C)nc4)c2cc1OC)C(=O)OC3.Cl [Example 86, 9-(2-(diisobutylamino)pyrimidin-5-yl)-6,7-dimethoxynaphtho[2,3-c]furan-1(3H)-one hydrochloride]
- SI (Selectivity Index, CC50/IC50) [3]: 0.75
- IC50 [3, 11]: 25.7 µM
- IC50 [4, 12]: 2.21 µM
- inhibition at 1 µM ([5]; Mus musculus): 71.8%
- IL-4 pg/ml [5, 13]: 96.0 pg/mL
- inhibition at 1 µM ([6]; Mus musculus): 23.7%
- IL-5 pg/ml [6, 13]: 71.0 pg/mL
- CC50 [7]: 19.2 µM

Structure (SMILES): COc1cc2cc3c(c(-c4ccc(N(C)c5cccc(C#N)c5)nc4)c2cc1OC)C(=O)OC3.Cl [Example 237, 3-((5-(6,7-dimethoxy-3-oxo-1,3-dihydronaphtho[2,3-c]furan-4-yl)pyridin-2-yl)(methyl)amino)benzonitrile]
- SI (Selectivity Index, CC50/IC50) [3]: 61.98
- IC50 [3, 11]: 0.81 µM
- SI (Selectivity Index, CC50/IC50) [1]: 1277
- IC50 [1]: 0.794 µM
- CC50 [7]: > 50 µM
- CC50 at 24 h [2]: 1020 µM

Structure (SMILES): COc1cc2cc3c(c(-c4cnc(N5CCCC(C)C5)nc4)c2cc1OC)C(=O)OC3 (centres unmarked) [Example 59, 6,7-dimethoxy-9-(2-(3-methylpiperidin-1-yl)pyrimidin-5-yl)naphtho[2,3-c]furan-1(3H)-one]
- SI (Selectivity Index, CC50/IC50) [3]: 20.79
- IC50 [3, 14]: 2.4 µM
- IC50 [4, 15]: 2.35 µM
- inhibition at 1 µM [5, 13]: 79%
- IL-4 pg/ml [5, 13]: 71.6 pg/mL
- inhibition at 1 µM [6, 13]: 44.3%
- IL-5 pg/ml [6, 13]: 51.9 pg/mL
- CC50 [7]: > 50 µM

Structure (SMILES): CCCCN(CCCC)c1ncc(-c2c3c(cc4cc(OC)c(OC)cc24)COC3=O)cn1 [Example 73, 9-(2-(dibutylamino)pyrimidin-5-yl)-6,7-dimethoxynaphtho[2,3-c]furan-1(3H)-one]
- SI (Selectivity Index, CC50/IC50) [3]: 6.53
- IC50 [3, 14]: 7.66 µM
- IC50 [4, 15]: 3.19 µM
- inhibition at 1 µM [5, 13]: 74.7%
- IL-4 pg/ml [5, 13]: 86.3 pg/mL
- inhibition at 1 µM [6, 13]: 20.4%
- IL-5 pg/ml [6, 13]: 74.1 pg/mL
- number of eosinophils in BALF ([8]; 10 mg/kg oral, ten days): significantly reduced
- BALF IL-4 Secretion inhibitory ability % [8, 16]: (51.3%)
- BALF IL-5 Secretion inhibitory ability % [8, 16]: (33.7%)
- BALF IgE Secretion inhibitory ability % [8, 16]: (24.3%)
- BALF IL-4 pg/ml [8, 17]: 64.9 ± 35.025 pg/mL
- BALF IL-5 pg/ml [8, 17]: 20.7 ± 13.46 pg/mL
- BALF IgE [8, 17]: 10.5 ± 3.282 ng/mL
- CC50 [7]: > 50 µM

Structure (SMILES): COc1cc2cc3c(c(-c4cnc(N(C)C5CCCC5)nc4)c2cc1OC)C(=O)OC3.Cl [Example 84, 9-(2-(cyclopentyl(methyl)amino)pyrimidin-5-yl)-6,7-dimethoxynaphtho[2,3-c]furan-1(3H)-one hydrochloride]
- SI (Selectivity Index, CC50/IC50) [3]: 237.53
- IC50 [3, 11]: 0.21 µM
- IC50 [4, 12]: 5.23 µM
- inhibition at 1 µM ([5]; Mus musculus): 99.7%
- IL-4 pg/ml [5, 13]: 1.1 pg/mL
- inhibition at 1 µM ([6]; Mus musculus): 88%
- IL-5 pg/ml [6, 13]: 11.2 pg/mL
- CC50 [7]: > 50 µM

Structure (SMILES): COc1cc2cc3c(c(-c4ccc5c(c4)OC(F)(F)O5)c2cc1OC)C(=O)OC3 [Example 221, 9-(2,2-difluorobenzo[d][1,3]dioxol-5-yl)-6,7-dimethoxynaphtho[2,3-c]furan-1(3H)-one]
- SI (Selectivity Index, CC50/IC50) [3]: 275.32
- IC50 [3, 14]: 0.18 µM
- protection from cytopathic effects induced by dengue virus [9]: protects from cytopathic effects
- EC50 ([9]; Dengue virus, Vero C1008, 120 h, 0.01 MOI, five days, read-out: Dengue virus Inhibitory ability (EC50)): 0.079 µM
- protection from cytopathic effects induced by Zika virus [10]: protects from cytopathic effects
- EC50 ([10]; Zika virus, 120 h, 0.02 MOI, five days, read-out: Zika virus Inhibitory ability (EC50)): 0.484 µM
- SI (Selectivity Index, CC50/IC50) [1]: 11472
- IC50 [1]: 0.04 µM
- CC50 [7]: > 50 µM
- CC50 at 24 h [2]: 457 µM

Structure (SMILES): NC(=O)c1ncn([C@@H]2O[C@H](CO)[C@@H](O)[C@H]2O)n1 [Ribavirin]
- IC50 [1]: 64.8 µM
- CC50 at 24 h [2]: 1270 µM

Structure (SMILES): COc1cc2cc3c(c(-c4ccc(N(C)C5Cc6ccccc6C5)nc4)c2cc1OC)C(=O)OC3 [Example 194, 9-(6-((2,3-dihydro-1H-indan-2-yl)(methyl)amino)pyridin-3-yl)-6,7-dimethoxynaphtho[2,3-c]furan-1(3H)-one]
- SI (Selectivity Index, CC50/IC50) [3]: 33.63
- IC50 [3, 14]: 1.49 µM
- SI (Selectivity Index, CC50/IC50) [1]: 48785
- IC50 [1]: 0.965 µM
- CC50 [7]: > 50 µM
- CC50 at 24 h [2]: 47100 µM
